Data on one compound can be found in ChEMBL document CHEMBL5143697, “Phenethoxy Derivatives with Anti-inflammatory Activities from the Betelnut Endophytic Trichoderma asperellum G10” (J Nat Prod, 2022).

In this assay the test system is RAW264.7. Nature of the assay: Antiinflammatory activity against mouse RAW264.7 cells assessed as inhibition of LPS-induced NO production preincubated for 1 hr followed by LPS stimulation and measured after 36 hrs by Griess reagent based assay. The class given is functional, cell-based.

Broadly, the IC50 is the point on the concentration scale where inhibition reaches its midpoint.

Regarding `C[C@@H]1[C@H](OCCc2ccccc2)O[C@H](C)[C@H]1CO`, the IC50 is 48.3 µM.
